Measured values published in patent US10039798B2, “Extracts of rosemary or hemerocallis fulva and methods of using same to promote circadian rhythm” (IN Ingredients, Inc., priority 2013, dated 2018).

Experiments:
Assay type in all cases: cell-based, Porcine
Details in all cases: 1 μM, 5 μM or 20 μM, 24 hr at 37° C.
CLOCK = CLOCK immunofluorescence in iPEC-1 cells treated with ursolic acid
Method: (§1) iPEC-1 cells were grown as a monolayer in DMEM with 10% fetal bovine serum (FBS) and the necessary supplements at 37° C. in a humidified incubator with 5% CO2. iPEC1 cells were seeded on 35 mm dishes. Experiments were initiated 48 hr after plating. Cells were treated with saline or with ursolic acid at three separate dosages (1 μM; 5 μM; or 20 μM) in the medium for 24 hr at 37° C. The cells were then washed with ice-cold PBS and fixed with 4% paraformaldehyde for 10 min at room temperature followed by permeabilization with 0.3% Triton X-100 for 10 min. After being washed with PBS three times, cells were incubated for 1 hr in PBS containing 10% normal goat serum blocking solution. The cells were subjected to immunofluorescence staining with the target specific antibodies (SIRT1, CLOCK and Bmal1) overnight at 4° C. The cells were then washed with cold PBS three times for 3 min each, and incubated with Alexa-labeled secondary antibodies (Invitrogen) at room temperature for 1 h. The cells were examined by fluorescence microscopy (a Nikon TE2000-S microscope, Nikon, Tokyo, Japan).

Bmal1 = Bmal1 immunofluorescence in iPEC-1 cells treated with ursolic acid
Method: as §1

SIRT1 = SIRT1 immunofluorescence in iPEC-1 cells treated with ursolic acid
Method: as §1

## C[C@H]1[C@H](C)CC[C@]2(C(=O)O)CC[C@]3(C)C(=CC[C@@H]4[C@@]5(C)CC[C@H](O)C(C)(C)[C@@H]5CC[C@]43C)[C@H]12 [ursolic acid]
CLOCK
  intensity of immunofluorescence of CLOCK compared with controls: significantly induced the intensity of immunofluorescence
Bmal1
  intensity of immunofluorescence of Bmal1 compared with controls: significantly induced the intensity of immunofluorescence
SIRT1
  intensity of immunofluorescence of SIRT1 compared with controls: significantly induced the intensity of immunofluorescence
